Test results: patent US12466800B2, “N-((1,2,3,5,6,7-hexahydro-S-indacen-4-yl)carbamoyl)-4, 5, 6, 7-tetrahydrobenzofuran-2-sulfonamide derivatives and related compounds as NLPR3 modulators for the treatment of multiple sclerosis (MS)” (Zomagen Biosciences Ltd, priority 2019, dated 2025)

What follows are molecules tested on IL-1b (assay: Mouse BMDM IL-1b Assay). Conditions: Macrophage; mouse bone marrow derived macrophages (C57BL6); 200 ng/mL LPS 3 h, compound 30 min, 5 mM ATP 45 min; IL-1b ELISA of supernatant.
Format: cell-based
Protocol: Example 20: Mouse BMDM IL-1b Assay
Mouse bone marrow cells from C57BL6 tibia and femur were culture in complete Isocov's Media supplemented with 20 ng/mL MCSF (BMDM media) at a density of 50 million cells/15 cm Petri dish. Fresh media was changed every 3 days, and bone marrow derived macrophages were collected, washed, and counted on day 7. Cells were seeded into 96 well plates at a density of 5×10^4 cells per well in 100 uL of BMDM media and cultured overnight. The cells were stimulated at 37° C. with 200 ng/mL Ultrapure LPS-B5 for 3 hours before pre-diluted compounds were added. 30 minutes after compound addition, 5 mM ATP was added for the secondary stimulation for 45 minutes. After stimulation, the plates were briefly spun down, and 50 uL of supernatant was harvested from each well. ELISA for mouse IL-1b was performed with 1:10 and 1:100 diluted supernatant using pre-coated kits. IL-1b concentrations were calculated based on pre-titrated standards, and compound inhibition IC50 is generated using the Levenberg Marquardt damped lease-square method.

SMILES	IC50 [nM]
O=C(Nc1c2c(cc3c1CCC3)CCC2)NS(=O)(=O)c1cc2c(o1)CCCC2=O [Compound 6]	100 to 1000
CC1(C)CCc2oc(S(=O)(=O)NC(=O)Nc3c4c(cc5c3CCC5)CCC4)cc2C1=O [Compound 13, N-((1,2,3,5,6,7-hexahydro-s-indacen-4-yl)carbamoyl)-5,5-dimethyl-4-oxo-4,5,6,7-tetrahydrobenzofuran-2-sulfonamide]	100 to 1000
CC1CC(=O)c2cc(S(=O)(=O)NC(=O)Nc3c4c(cc5c3CCC5)CCC4)oc2C1 (stereo not drawn) [Compound 17, N-((1,2,3,5,6,7-hexahydro-s-indacen-4-yl)carbamoyl)-6-methyl-4-oxo-4,5,6,7-tetrahydrobenzofuran-2-sulfonamide]	100 to 1000
CC1Cc2oc(S(=O)(=O)NC(=O)Nc3c4c(cc5c3CCC5)CCC4)cc2C(O)C1 (stereo not drawn) [Compound 18, N-((1,2,3,5,6,7-hexahydro-s-indacen-4-yl)carbamoyl)-4-hydroxy-6-methyl-4,5,6,7-tetrahydrobenzofuran-2-sulfonamide]	100 to 1000
CC1(C)CC(=O)c2cc(S(=O)(=O)NC(=O)Nc3c4c(cc5c3CCC5)CCC4)oc2C1 [Compound 21, N-((1,2,3,5,6,7-hexahydro-s-indacen-4-yl)carbamoyl)-6,6-dimethyl-4-oxo-4,5,6,7-tetrahydrobenzofuran-2-sulfonamide]	100 to 1000
CC(C)C1Cc2oc(S(=O)(=O)NC(=O)Nc3c4c(cc5c3CCC5)CCC4)cc2C(C)(O)C1 (stereo not drawn) [Compound 27, N-((1,2,3,5,6,7-hexahydro-s-indacen-4-yl)carbamoyl)-4-hydroxy-6-isopropyl-4-methyl-4,5,6,7-tetrahydrobenzofuran-2-sulfonamide]	< 100
CC(C)C1Cc2oc(S(=O)(=O)NC(=O)Nc3c4c(cc5c3CCC5)CCC4)cc2C(O)C1 (stereo not drawn) [Compound 28, N-((1,2,3,5,6,7-hexahydro-s-indacen-4-yl)carbamoyl)-4-hydroxy-6-isopropyl-4,5,6,7-tetrahydrobenzofuran-2-sulfonamide]	100 to 1000
O=C(Nc1c2c(cc3c1CCC3)CCC2)NS(=O)(=O)c1cc2c(o1)CCCc1c[nH]nc1-2 [Compound 33, N-((1,2,3,5,6,7-hexahydro-s-indacen-4-yl)carbamoyl)-2,4,5,6-tetrahydrofuro[2′,3′:6,7]cyclohepta[1,2-c]pyrazole-8-sulfonamide]	100 to 1000
O=C(Nc1c2c(cc3c1CCC3)CCC2)NS(=O)(=O)c1cc2c(o1)CCC/C2=N\O [Compound 35, (E)-N-((1,2,3,5,6,7-hexahydro-s-indacen-4-yl)carbamoyl)-4-(hydroxyimino)-4,5,6,7-tetrahydrobenzofuran-2-sulfonamide]	< 100
O=C(Nc1c2c(cc3c1CCC3)CCC2)NS(=O)(=O)c1cc2c(o1)CCC/C2=N/O [Compound 36, (Z)—N-((1,2,3,5,6,7-hexahydro-s-indacen-4-yl)carbamoyl)-4-(hydroxyimino)-4,5,6,7-tetrahydrobenzofuran-2-sulfonamide]	< 100
O=C(Nc1c2c(cc3c1CCC3)CCC2)NS(=O)(=O)c1cc2c(o1)CCCNC2=O [Compound 38, N-((1,2,3,5,6,7-hexahydro-s-indacen-4-yl)carbamoyl)-4-oxo-5,6,7,8-tetrahydro-4H-furo[3,2-c]azepine-2-sulfonamide]	100 to 1000
O=C(Nc1c2c(c(Br)c3c1CCC3)CCC2)NS(=O)(=O)c1cc2c(o1)CCCC2O (stereo not drawn) [Compound 39, N-((8-bromo-1,2,3,5,6,7-hexahydro-s-indacen-4-yl)carbamoyl)-4-hydroxy-4,5,6,7-tetrahydrobenzofuran-2-sulfonamide]	< 100
CC1(O)CCCc2oc(S(=O)(=O)NC(=O)Nc3c4c(c(Br)c5c3CCC5)CCC4)cc21 (stereo not drawn) [Compound 40, N-((8-bromo-1,2,3,5,6,7-hexahydro-s-indacen-4-yl)carbamoyl)-4-hydroxy-4-methyl-4,5,6,7-tetrahydrobenzofuran-2-sulfonamide]	< 100
CO/N=C1/CCCc2oc(S(=O)(=O)NC(=O)Nc3c4c(cc5c3CCC5)CCC4)cc21 [Compound 41, (Z)-N-((1,2,3,5,6,7-hexahydro-s-indacen-4-yl)carbamoyl)-4-(methoxyimino)-4,5,6,7-tetrahydrobenzofuran-2-sulfonamide]	100 to 1000

Next, values leading:

IC50 [nM]	SMILES
< 100	CC1(O)CCCc2oc(S(=O)(=O)NC(=O)Nc3c4c(cc5c3CCC5)CCC4)cc21 (stereo not drawn) [Compound 5, N-((1,2,3,5,6,7-hexahydro-s-indacen-4-yl)carbamoyl)-4-hydroxy-4-methyl-4,5,6,7-tetrahydrobenzofuran-2-sulfonamide]
< 100	O=C(Nc1c2c(cc3c1CCC3)CCC2)NS(=O)(=O)c1cc2c(o1)CCCC2O (stereo not drawn) [Compound 8, N-((1,2,3,5,6,7-hexahydro-s-indacen-4-yl)carbamoyl)-4-hydroxy-4,5,6,7-tetrahydrobenzofuran-2-sulfonamide]
< 100	CC1(C)CCc2oc(S(=O)(=O)NC(=O)Nc3c4c(cc5c3CCC5)CCC4)cc2C1(C)O (stereo not drawn) [Compound 11, N-((1,2,3,5,6,7-hexahydro-s-indacen-4-yl)carbamoyl)-4-hydroxy-4,5,5-trimethyl-4,5,6,7-tetrahydrobenzofuran-2-sulfonamide]
< 100	CC1(C)CCC(C)(O)c2cc(S(=O)(=O)NC(=O)Nc3c4c(cc5c3CCC5)CCC4)oc21 (stereo not drawn) [Compound 12, N-((1,2,3,5,6,7-hexahydro-s-indacen-4-yl)carbamoyl)-4-hydroxy-4,7,7-trimethyl-4,5,6,7-tetrahydrobenzofuran-2-sulfonamide]
< 100	CC1(C)CCc2oc(S(=O)(=O)NC(=O)Nc3c4c(cc5c3CCC5)CCC4)cc2C1O (stereo not drawn) [Compound 14, N-((1,2,3,5,6,7-hexahydro-s-indacen-4-yl)carbamoyl)-4-hydroxy-5,5-dimethyl-4,5,6,7-tetrahydrobenzofuran-2-sulfonamide]
< 100	CC1Cc2oc(S(=O)(=O)NC(=O)Nc3c4c(cc5c3CCC5)CCC4)cc2C(C)(O)C1 (stereo not drawn) [Compound 16, N-((1,2,3,5,6,7-hexahydro-s-indacen-4-yl)carbamoyl)-4-hydroxy-4,6-dimethyl-4,5,6,7-tetrahydrobenzofuran-2-sulfonamide]
< 100	CC1(C)Cc2oc(S(=O)(=O)NC(=O)Nc3c4c(cc5c3CCC5)CCC4)cc2C(C)(O)C1 (stereo not drawn) [Compound 20, N-((1,2,3,5,6,7-hexahydro-s-indacen-4-yl)carbamoyl)-4-hydroxy-4,6,6-trimethyl-4,5,6,7-tetrahydrobenzofuran-2-sulfonamide]
< 100	CC1(C)Cc2oc(S(=O)(=O)NC(=O)Nc3c4c(cc5c3CCC5)CCC4)cc2C(O)C1 (stereo not drawn) [Compound 22, N-((1,2,3,5,6,7-hexahydro-s-indacen-4-yl)carbamoyl)-4-hydroxy-6,6-dimethyl-4,5,6,7-tetrahydrobenzofuran-2-sulfonamide]
< 100	CC1(O)CCCCc2oc(S(=O)(=O)NC(=O)Nc3c4c(cc5c3CCC5)CCC4)cc21 (stereo not drawn) [Compound 24, N-((1,2,3,5,6,7-hexahydro-s-indacen-4-yl)carbamoyl)-4-hydroxy-4-methyl-5,6,7,8-tetrahydro-4H-cyclohepta[b]furan-2-sulfonamide]
< 100	O=C(Nc1c2c(cc3c1CCC3)CCC2)NS(=O)(=O)c1cc2c(o1)CCCCC2O (stereo not drawn) [Compound 25, N-((1,2,3,5,6,7-hexahydro-s-indacen-4-yl)carbamoyl)-4-hydroxy-5,6,7,8-tetrahydro-4H-cyclohepta[b]furan-2-sulfonamide]
